Assay results reported in patent publication US6537545B1, “Use of corneal hardening agents in enzymeorthokeratology” (ISTA Pharmaceuticals, Inc., priority 1998, dated 2003).

Test system: Dutch Belted rabbit eyes
Assay: Histopathology of eyes after corneal scraping (Example 2)
Type: in vivo
Details: one of the four glyceraldehyde treated eyes; presumably due to scraping
Description: The study animals were sacrificed on Study Day 74 with an intravenous injection of pentobarbital (2 mg/kg). Eyes from the study animals were enucleated immediately post-sacrifice and placed in labeled tubes containing approximately 5 mL of half-strength Kamovsky's fixative (2.5% glutaraldehyde, 2.5% paraformaldehyde, 2.5 mM CaCl2, 100 mM Na Cacodylate, pH 7.4) for approximately 1 hour. The eyes were removed and small windows (1×3 mm) were made in the cornea/iris to allow penetration of the fixative to the vitreous. The eyes were then placed in 25 mL of fresh fixative. The fixed eyes were then sent to Consolidated Veterinary Diagnostics, Inc. (West Sacramento, Calif.) where they underwent routine tissue processing, sectioning, and staining with hematoxylin/eosin. They were examined by a Board Certified Veterinary Pathologist.
The eyes which had undergone corneal scraping and a subsequent healing period were sent to Consolidated Veterinary Diagnostics for tissue processing and pathologic interpretation. In toto, 4 eyes from the glyceraldehyde treated group and 2 eyes from the BSS group were evaluated. […] This description would imply a response to injury (presumably the scraping).

## O=CC(O)CO (stereo not shown) [glyceraldehyde]
  pathologic finding in eyes after scraping and healing: superficial scar in the corneal stroma and disruption of Bowman's membrane
